According to PubChem BioAssay (NCI):
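Growth conditions: 96-well plates. Treatment: test compound, 48 hours, 5 concentrations. Analysis: linear interpolation between bracketing concentrations; unreached endpoints set to highest concentration. Abbreviation: GI50, concentration required for 50% inhibition of growth. TGI is the concentration that stops growth completely.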

How the values were obtained:
Assay in all cases: NCI-60 cell line screen, 48 h
ACHN renal = system: ACHN renal
T-47D breast = system: T-47D breast
LOX IMVI melanoma = system: LOX IMVI melanoma
UACC-257 melanoma = system: UACC-257 melanoma
786-0 renal = system: 786-0 renal
HOP-92 NSCLC = system: HOP-92 NSCLC
M14 melanoma = system: M14 melanoma
DU-145 prostate = system: DU-145 prostate
CCRF-CEM leukemia = system: CCRF-CEM leukemia
SK-MEL-28 melanoma = system: SK-MEL-28 melanoma
HT29 colon = system: HT29 colon
SF-295 CNS = system: SF-295 CNS
K-562 leukemia = system: K-562 leukemia
HOP-62 NSCLC = system: HOP-62 NSCLC
SK-OV-3 ovarian = system: SK-OV-3 ovarian
SNB-75 CNS = system: SNB-75 CNS
SR leukemia = system: SR leukemia
MOLT-4 leukemia = system: MOLT-4 leukemia
OVCAR-8 ovarian = system: OVCAR-8 ovarian
A498 renal = system: A498 renal
EKVX NSCLC = system: EKVX NSCLC
HS 578T breast = system: HS 578T breast
HCC-2998 colon = system: HCC-2998 colon
COLO 205 colon = system: COLO 205 colon
UACC-62 melanoma = system: UACC-62 melanoma
SN12C renal = system: SN12C renal
MCF7 breast = system: MCF7 breast
PC-3 prostate = system: PC-3 prostate
CAKI-1 renal = system: CAKI-1 renal
SK-MEL-2 melanoma = system: SK-MEL-2 melanoma
OVCAR-5 ovarian = system: OVCAR-5 ovarian
HCT-116 colon = system: HCT-116 colon
OVCAR-3 ovarian = system: OVCAR-3 ovarian
KM12 colon = system: KM12 colon
SK-MEL-5 melanoma = system: SK-MEL-5 melanoma
MDA-MB-231 breast = system: MDA-MB-231 breast
HCT-15 colon = system: HCT-15 colon
NCI-H226 lung = system: NCI-H226 lung
TK-10 renal = system: TK-10 renal
RPMI-8226 leukemia = system: RPMI-8226 leukemia
SF-539 CNS = system: SF-539 CNS
MALME-3M melanoma = system: MALME-3M melanoma
UO-31 renal = system: UO-31 renal
SW-620 colon = system: SW-620 colon
HL-60(TB) leukemia = system: HL-60(TB) leukemia
OVCAR-4 ovarian = system: OVCAR-4 ovarian
NCI-H522 lung = system: NCI-H522 lung
RXF 393 renal = system: RXF 393 renal
NCI/ADR-RES ovarian = system: NCI/ADR-RES ovarian
NCI-H460 lung = system: NCI-H460 lung
A549 NSCLC = system: A549 NSCLC
U251 CNS = system: U251 CNS
BT-549 breast = system: BT-549 breast
IGROV1 ovarian = system: IGROV1 ovarian
SNB-19 CNS = system: SNB-19 CNS
MDA-MB-435 = system: MDA-MB-435
SF-268 CNS = system: SF-268 CNS

## O=C(CSc1nc2ccccc2c(=O)n1-c1ccc(Cl)cc1)N/N=C/c1ccc(Oc2ccc(Cl)cc2)cc1
ACHN renal
  GI50: 4.36 µM
  TGI: 15.2 µM
T-47D breast
  GI50: 2.09 µM
  TGI: 5.76 µM
LOX IMVI melanoma
  GI50: 1.29 µM
  TGI: 2.59 µM
UACC-257 melanoma
  GI50: 4.62 µM
  TGI: 22.5 µM
786-0 renal
  GI50: 2.51 µM
  TGI: 6.42 µM
HOP-92 NSCLC
  GI50: 2.07 µM
  TGI: 5.62 µM
M14 melanoma
  GI50: 1.58 µM
  TGI: 3.47 µM
DU-145 prostate
  GI50: 3.52 µM
  TGI: 20.4 µM
CCRF-CEM leukemia
  GI50: 3.09 µM
  TGI: 48.5 µM
SK-MEL-28 melanoma
  GI50: 1.51 µM
  TGI: 3.01 µM
HT29 colon
  GI50: 2.14 µM
  TGI: 11.1 µM
SF-295 CNS
  GI50: 3.61 µM
  TGI: 13.3 µM
K-562 leukemia
  GI50: 4.15 µM
  TGI: 20.2 µM
HOP-62 NSCLC
  GI50: 1.69 µM
  TGI: 4.05 µM
SK-OV-3 ovarian
  GI50: 3.26 µM
  TGI: 11.9 µM
SNB-75 CNS
  GI50: 3.99 µM
  TGI: 29.2 µM
SR leukemia
  GI50: 1.84 µM
  TGI: 6.86 µM
MOLT-4 leukemia
  GI50: 2.29 µM
  TGI: 9.23 µM
OVCAR-8 ovarian
  GI50: 2.41 µM
  TGI: 6.56 µM
A498 renal
  GI50: 1.94 µM
  TGI: 4.35 µM
EKVX NSCLC
  GI50: 3.1 µM
  TGI: 13.9 µM
HS 578T breast
  GI50: 2.17 µM
  TGI: 6.36 µM
HCC-2998 colon
  GI50: 1.92 µM
  TGI: 3.81 µM
COLO 205 colon
  GI50: 2.79 µM
  TGI: 8.74 µM
UACC-62 melanoma
  GI50: 1.59 µM
  TGI: 3.18 µM
SN12C renal
  GI50: 1.74 µM
  TGI: 4.14 µM
MCF7 breast
  GI50: 2.01 µM
  TGI: 5.5 µM
PC-3 prostate
  GI50: 2.58 µM
  TGI: 9.32 µM
CAKI-1 renal
  GI50: 3.06 µM
  TGI: 12 µM
SK-MEL-2 melanoma
  GI50: 2.86 µM
  TGI: 8.93 µM
OVCAR-5 ovarian
  GI50: 2.27 µM
  TGI: 6.44 µM
HCT-116 colon
  GI50: 1.55 µM
  TGI: 3.74 µM
OVCAR-3 ovarian
  GI50: 2.75 µM
  TGI: 9.55 µM
KM12 colon
  GI50: 2.04 µM
  TGI: 5 µM
SK-MEL-5 melanoma
  GI50: 1.75 µM
  TGI: 3.51 µM
MDA-MB-231 breast
  GI50: 1.79 µM
  TGI: 3.9 µM
HCT-15 colon
  GI50: 2.41 µM
  TGI: 7.49 µM
NCI-H226 lung
  GI50: 2.46 µM
  TGI: 6.59 µM
TK-10 renal
  GI50: 5.97 µM
  TGI: 40.2 µM
RPMI-8226 leukemia
  GI50: 2.98 µM
  TGI: 15.8 µM
SF-539 CNS
  GI50: 2.54 µM
  TGI: 6.32 µM
MALME-3M melanoma
  GI50: 1.38 µM
  TGI: 2.77 µM
UO-31 renal
  GI50: 7.47 µM
  TGI: 21.1 µM
SW-620 colon
  GI50: 1.81 µM
  TGI: 7.84 µM
HL-60(TB) leukemia
  GI50: 16 µM
  TGI: 37 µM
OVCAR-4 ovarian
  GI50: 1.89 µM
  TGI: 4.57 µM
NCI-H522 lung
  GI50: 2.34 µM
  TGI: 8.31 µM
RXF 393 renal
  GI50: 1.7 µM
  TGI: 3.14 µM
NCI/ADR-RES ovarian
  GI50: 1.64 µM
  TGI: 3.56 µM
NCI-H460 lung
  GI50: 0.788 µM
  TGI: 2.6 µM
A549 NSCLC
  GI50: 3.25 µM
  TGI: 14 µM
U251 CNS
  GI50: 1.65 µM
  TGI: 3.69 µM
BT-549 breast
  GI50: 3.28 µM
  TGI: 12.2 µM
IGROV1 ovarian
  GI50: 1.51 µM
  TGI: 3.28 µM
SNB-19 CNS
  GI50: 3.36 µM
  TGI: 12.7 µM
MDA-MB-435
  GI50: 1.93 µM
  TGI: 4.56 µM
SF-268 CNS
  GI50: 3.85 µM
  TGI: 23.9 µM
